Laboratory results taken from patent publication US20040156869A1, “2-substituted quinazolin-4-ylamine analogues” (Neurogen Corporation, priority 2002, published 2004).

Target: human capsaicin receptor (VR1) (Homo sapiens, UniProt Q8NER1)
Test: Capsaicin receptor binding assay ([3H]RTX competition, VR1-transfected HEK293 membranes)

human capsaicin receptor (VR1), sequence (Q8NER1 whole entry): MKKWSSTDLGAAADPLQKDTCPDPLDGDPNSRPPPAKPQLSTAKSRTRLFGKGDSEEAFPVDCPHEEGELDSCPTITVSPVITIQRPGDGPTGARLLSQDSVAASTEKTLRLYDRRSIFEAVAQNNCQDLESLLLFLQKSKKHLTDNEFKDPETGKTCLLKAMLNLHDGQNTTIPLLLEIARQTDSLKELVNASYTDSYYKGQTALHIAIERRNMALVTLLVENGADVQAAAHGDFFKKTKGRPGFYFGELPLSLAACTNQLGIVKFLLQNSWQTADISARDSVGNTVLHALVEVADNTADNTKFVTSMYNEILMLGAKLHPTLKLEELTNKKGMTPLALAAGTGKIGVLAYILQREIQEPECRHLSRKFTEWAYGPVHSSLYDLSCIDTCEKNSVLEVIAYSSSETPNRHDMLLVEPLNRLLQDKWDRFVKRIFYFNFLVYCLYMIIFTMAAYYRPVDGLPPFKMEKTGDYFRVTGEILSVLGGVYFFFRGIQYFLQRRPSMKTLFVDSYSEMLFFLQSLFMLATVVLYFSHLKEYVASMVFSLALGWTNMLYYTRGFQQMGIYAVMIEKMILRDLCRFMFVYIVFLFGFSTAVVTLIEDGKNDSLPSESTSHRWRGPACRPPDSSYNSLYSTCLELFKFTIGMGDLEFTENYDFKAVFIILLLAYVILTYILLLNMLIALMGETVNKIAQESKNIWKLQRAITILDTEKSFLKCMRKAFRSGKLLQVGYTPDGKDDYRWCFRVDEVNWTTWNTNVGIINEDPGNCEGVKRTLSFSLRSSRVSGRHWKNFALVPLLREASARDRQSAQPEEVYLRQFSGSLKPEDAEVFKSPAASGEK

Ki, < 1 µM:
COCCc1nc(Nc2ccc(C(F)(F)F)cc2)c2ccc(-c3ncccc3Cl)nc2n1 [Compound 85, [7-(3-Chloro-pyridin-2-yl)-2-(2-methoxy-ethyl)-pyrido[2,3-d]pyrimidin-4-yl]-(4-trifluoromethyl-phenyl)-amine]
FC(F)(F)c1ccc(Nc2nc(COC3CCOCC3)nc3cc(-c4ncccc4C(F)(F)F)ccc23)cc1 [Compound 86, [2-(Tetrahydro-pyran-4-yloxymethyl)-7-(3-trifluoromethyl-pyridin-2-yl)-quinazolin-4-yl]-(4-trifluoromethyl-phenyl)-amine]
CN(C)CCOCc1nc(Nc2ccc(C(F)(F)F)cc2)c2ccc(-c3ncccc3C(F)(F)F)cc2n1 [Compound 87, [2-(2-Dimethylamino-ethoxymethyl)-7-(3-trifluoromethyl-pyridin-2-yl)-quinazolin-4-yl]-(4-trifluoromethyl-phenyl)-amine]
COCc1nc(Nc2ccc(C(F)(F)F)cc2)c2ccc(-c3ncccc3C)nc2n1 [Compound 88, [2-Methoxymethyl-7-(3-methyl-pyridin-2-yl)-pyrido[2,3-d]pyrimidin-4-yl]-(4-trifluoromethyl-phenyl)-amine]
CN(C)CCCOCc1nc(Nc2ccc(C(F)(F)F)cc2)c2ccc(-c3ncccc3C(F)(F)F)cc2n1 [Compound 89, [2-(3-Dimethylamino-propoxymethyl)-7-(3-trifluoromethyl-pyridin-2-yl)-quinazolin-4-yl]-(4-trifluoromethyl-phenyl)-amine]
CCOCc1nc(Nc2ccc(C(F)(F)F)cc2)c2ccc(-c3ncccc3C)cc2n1 [Compound 90, [2-Ethoxymethyl-7-(3-methyl-pyridin-2-yl)-quinazolin-4-yl]-(4-trifluoromethyl-phenyl)-amine]
Cc1cccnc1-c1ccc2c(Nc3ccc(C(F)(F)F)cc3)nc(COC(C)C)nc2c1 [Compound 91, [2-Isopropoxymethyl-7-(3-methyl-pyridin-2-yl)-quinazolin-4-yl]-(4-trifluoromethyl-phenyl)-amine]
Cc1cccnc1-c1ccc2c(Nc3ccc(C(F)(F)F)cc3)nc(COC3CCOCC3)nc2c1 [Compound 92, [7-(3-Methyl-pyridin-2-yl)-2-(tetrahydro-pyran-4-yloxymethyl)-quinazolin-4-yl]-(4-trifluoromethyl-phenyl)-amine]
CCC(C)c1ccc(Nc2nc(COC)nc3nc(-c4ncccc4C(F)(F)F)ccc23)cc1 (stereo not shown) [Compound 93, (4-sec-Butyl-phenyl)-[2-methoxymethyl-7-(3-trifluoromethyl-pyridin-2-yl)-pyrido[2,3-d]pyrimidin-4-yl]-amine]
COCc1nc(Nc2ccc(C(C)C(F)(F)F)cc2)c2ccc(-c3ncccc3C(F)(F)F)nc2n1 (stereo not shown) [Compound 94, [2-Methoxymethyl-7-(3-trifluoromethyl-pyridin-2-yl)-pyrido[2,3-d]pyrimidin-4-yl]-[4-(2,2,2-trifluoro-1-methyl-ethyl)-phenyl]-amine]
COCc1nc(Nc2ccc(C(C)(C)C)cc2)c2ccc(-c3ncccc3C)nc2n1 [Compound 95, (4-tert-Butyl-phenyl)-[2-methoxymethyl-7-(3-methyl-pyridin-2-yl)-pyrido[2,3-d]pyrimidin-4-yl]-amine]
COCc1nc(Nc2ccc(C(C)C)cc2)c2ccc(-c3ncccc3C)nc2n1 [Compound 96, (4-Isopropyl-phenyl)-[2-methoxymethyl-7-(3-methyl-pyridin-2-yl)-pyrido[2,3-d]pyrimidin-4-yl]-amine]
CCC(C)c1ccc(Nc2nc(COC)nc3nc(-c4ncccc4C)ccc23)cc1 (stereo not shown) [Compound 97, (4-sec-Butyl-phenyl)-[2-methoxymethyl-7-(3-methyl-pyridin-2-yl)-pyrido[2,3-d]pyrimidin-4-yl]-amine]
COCc1nc(Nc2ccc(C(C)(C)C#N)cc2)c2ccc(-c3ncccc3C)nc2n1 [Compound 98, 2-{4-[2-Methoxymethyl-7-(3-methyl-pyridin-2-yl)-pyrido[2,3-d]pyrimidin-4-ylamino]-phenyl}-2-methyl-propionitrile]
CCOC(=O)c1nc(Nc2ccc(C(F)(F)F)cc2)c2ccc(-c3ncccc3C(F)(F)F)cc2n1 [Compound 99, 4-(4-Trifluoromethyl-phenylamino)-7-(3-trifluoromethyl-pyridin-2-yl)-quinazoline-2-carboxylic acid ethyl ester]
O=C(O)c1nc(Nc2ccc(C(F)(F)F)cc2)c2ccc(-c3ncccc3C(F)(F)F)cc2n1 [Compound 100, 4-(4-Trifluoromethyl-phenylamino)-7-(3-trifluoromethyl-pyridin-2-yl)-quinazoline-2-carboxylic acid]
CC(C)c1ccc(Nc2nc(COC3CCOCC3)nc3cc(-c4ncccc4C(F)(F)F)ccc23)cc1 [Compound 101, (4-Isopropyl-phenyl)-[2-(tetrahydro-pyran-4-yloxymethyl)-7-(3-trifluoromethyl-pyridin-2-yl)-quinazolin-4-yl]-amine]
FC(F)(F)c1ccc(Nc2nc(COC3CCOCC3)nc3cc(-c4ncccc4Cl)ccc23)cc1 [Compound 102, [7-(3-Chloro-pyridin-2-yl)-2-(tetrahydro-pyran-4-yloxymethyl)-quinazolin-4-yl]-(4-trifluoromethyl-phenyl)-amine]
CC(C)c1ccc(Nc2nc(COC3CCOCC3)nc3cc(-c4ncccc4Cl)ccc23)cc1 [Compound 103, [7-(3-Chloro-pyridin-2-yl)-2-(tetrahydro-pyran-4-yloxymethyl)-quinazolin-4-yl]-(4-isopropyl-phenyl)-amine]
CCOCc1nc(Nc2ccc(C(C)C)cc2)c2ccc(-c3ncccc3C)cc2n1 [Compound 104, [2-Ethoxymethyl-7-(3-methyl-pyridin-2-yl)-quinazolin-4-yl]-(4-isopropyl-phenyl)-amine]
Cc1cccnc1-c1ccc2c(Nc3ccc(C(C)C)cc3)nc(COC(C)C)nc2c1 [Compound 105, [2-Isopropoxymethyl-7-(3-methyl-pyridin-2-yl)-quinazolin-4-yl]-(4-isopropyl-phenyl)-amine]
Cc1cccnc1-c1ccc2c(Nc3ccc(C(C)C)cc3)nc(COC3CCOCC3)nc2c1 [Compound 106, (4-Isopropyl-phenyl)-[7-(3-methyl-pyridin-2-yl)-2-(tetrahydro-pyran-4-yloxymethyl)-quinazolin-4-yl]-amine]
COCc1nc(Nc2ccc(C(C)(C)C)cc2)c2ccc(-c3ncccc3C(F)(F)F)nc2n1 [Compound 107, (4-tert-Butyl-phenyl)-[2-methoxymethyl-7-(3-trifluoromethyl-pyridin-2-yl)-pyrido[2,3-d]pyrimidin-4-yl]-amine]
COCc1nc(Nc2ccc(C(C)C)cc2)c2ccc(-c3ncccc3C(F)(F)F)nc2n1 [Compound 108, (4-Isopropyl-phenyl)-[2-methoxymethyl-7-(3-trifluoromethyl-pyridin-2-yl)-pyrido[2,3-d]pyrimidin-4-yl]-amine]
COCc1nc(Nc2ccc(C(F)(F)F)cc2)c2ccc(-c3ncccc3C(F)(F)F)nc2n1 [Compound 109, [2-Methoxymethyl-7-(3-trifluoromethyl-pyridin-2-yl)-pyrido[2,3-d]pyrimidin-4-yl]-(4-trifluoromethyl-phenyl)-amine]
COCc1nc(Nc2ccc(C3CCCC3)cc2)c2ccc(-c3ncccc3C(F)(F)F)nc2n1 [Compound 110, (4-Cyclopentyl-phenyl)-[2-methoxymethyl-7-(3-trifluoromethyl-pyridin-2-yl)-pyrido[2,3-d]pyrimidin-4-yl]-amine]
CN(C)CCCCOCc1nc(Nc2ccc(C(C)(C)C)cc2)c2ccc(-c3ncccc3C(F)(F)F)cc2n1 [Compound 111, (4-tert-Butyl-phenyl)-[2-(4-dimethylamino-butoxymethyl)-7-(3-trifluoromethyl-pyridin-2-yl)-quinazolin-4-yl]-amine]
COCc1nc(Nc2ccc(S(C)(=O)=O)cc2)c2ccc(-c3ncccc3C(F)(F)F)nc2n1 [Compound 112, (4-Methanesulfonyl-phenyl)-[2-methoxymethyl-7-(3-trifluoromethyl-pyridin-2-yl)-pyrido[2,3-d]pyrimidin-4-yl]-amine]
COCc1nc(Nc2ccc(S(=O)(=O)C(F)(F)F)cc2)c2ccc(-c3ncccc3C(F)(F)F)nc2n1 [Compound 113, [2-Methoxymethyl-7-(3-trifluoromethyl-pyridin-2-yl)-pyrido[2,3-d]pyrimidin-4-yl]-(4-trifluoromethanesulfonyl-phenyl)-amine]
COCc1nc(Nc2ccc(S(=O)(=O)N3CCOCC3)cc2)c2ccc(-c3ncccc3C(F)(F)F)nc2n1 [Compound 114, [2-Methoxymethyl-7-(3-trifluoromethyl-pyridin-2-yl)-pyrido[2,3-d]pyrimidin-4-yl]-[4-(morpholine-4-sulfonyl)-phenyl]-amine]
CCN(CC)CCCOCc1nc(Nc2ccc(C(F)(F)F)cc2)c2ccc(-c3ncccc3C(F)(F)F)cc2n1 [Compound 115, [2-(3-Diethylamino-propoxymethyl)-7-(3-trifluoromethyl-pyridin-2-yl)-quinazolin-4-yl]-(4-trifluoromethyl-phenyl)-amine]
CN(C)CCCOCc1nc(Nc2ccc(C(C)(C)C)cc2)c2ccc(-c3ncccc3C(F)(F)F)cc2n1 [Compound 116, (4-tert-Butyl-phenyl)-[2-(3-dimethylamino-propoxymethyl)-7-(3-trifluoromethyl-pyridin-2-yl)-quinazolin-4-yl]-amine]
CCN(CC)CCCOCc1nc(Nc2ccc(C(C)(C)C)cc2)c2ccc(-c3ncccc3C(F)(F)F)cc2n1 [Compound 117, (4-tert-Butyl-phenyl)-[2-(3-diethylamino-propoxymethyl)-7-(3-trifluoromethyl-pyridin-2-yl)-quinazolin-4-yl]-amine]
COCc1nc(Nc2ccc(C3CC3)cc2)c2ccc(-c3ncccc3C(F)(F)F)cc2n1 [Compound 118, (4-Cyclopropyl-phenyl)-[2-methoxymethyl-7-(3-trifluoromethyl-pyridin-2-yl)-quinazolin-4-yl]-amine]
